Experimental data as given in patent US6908899B2, “Pro-inflammatory fibrinopeptide” (U.S. Dept. of Veterans Affairs, priority 2001, dated 2005).
Where no end group is shown, it is not given here. [ ]: non-standard residue; d: D form. Pen = CC(C)(S)[C@H](N)C(=O)O

Columns and labels:
[1] = tested on: OA synovial cells; assay: PDTC inhibition of IL-1 and GPRP induction of ICAM-1 (ELISA); format: cell-based, human; conditions: PDTC pre-incubation 1.5 hours, IL-1 or GPRP overnight, ± SD, triplicate
From the text: (§1) NF-kappaB activation is already well known to affect a broad array of immediate-early gene products, such as TNF, interleukins, chemokines and colony stimulating factors; genes that are tightly regulated during inflammation and wound healing. […] PDTC is an anti-oxidant that prevents NF-kappaB activation and its translocation to the nucleus (Reference 26). […] [table]

[2] = tested on: RA synovial cells; assay: as above; format: cell-based, human; conditions: for ICAM-1 O.D. 492: PDTC pre-incubation 1.5 hours, IL-1 or GPRP overnight, ± SD, triplicate
From the text: as §1

[3] = tested on: RA patients; conditions: double blind clinical trial (Reference 29); cited from earlier work
[4] = tested on: RA synovial fibroblasts; assay: ICAM-1 cell-ELISA (O.D. 492); format: cell-based, human; conditions: for ICAM-1 O.D. 492: overnight, IL-1 0.5 ng/ml, GPRP or GPRP-amide 1 mg/ml, fibrinogen receptor peptide 0.1 mg/ml, FPA, FPB 10^−4 M; for Effect on ICAM-1 induction: synovial cell incubation with coagulation-related peptides
[5] = tested on: foreskin fibroblasts; assay: ICAM-1 cell-ELISA (O.D. 492); format: cell-based, human; conditions: overnight; for ICAM-1 O.D. 492: Foreskin line, IL-1 0.5 ng/ml, GPRP or GPRP-amide 1 mg/ml, fibrinogen receptor peptide 0.1 mg/ml, FPA, FPB 10^−4 M
[6] = tested on: synovial cells from patients with osteoarthritis (OA); assay: ICAM-1 ELISA (O.D. 492); format: cell-based, human; conditions: OA line; overnight; IL-1 0.5 ng/ml, GPRP or GPRP-amide 1 mg/ml, fibrinogen receptor peptide 0.1 mg/ml, FPA, FPB 10^−4 M
[7] = tested on: RA synovial fibroblasts; assay: Binding of biotinylated peptide by flow cytometry; set-up: species or system human; conditions: RA #16, Avidin-FITC
From the text: Table 9 illustrates an analysis of the binding of biotinylated amino acid sequence 17-28 of human fibrinogen Aα Chain (SAC[KBtn]) to RA synovial fibroblasts by Flow Cytometry. The biotinylated control peptide (KREE-SEQ ID NO:3) represents corresponding sequences derived from the B/beta chain of fibrinogen following removal of Fibrinopeptide B.

[8] = tested on: fibrin polymerization; conditions: cited from earlier work
fibrin polymerization, sequence (P02679 27-453, one chain of several): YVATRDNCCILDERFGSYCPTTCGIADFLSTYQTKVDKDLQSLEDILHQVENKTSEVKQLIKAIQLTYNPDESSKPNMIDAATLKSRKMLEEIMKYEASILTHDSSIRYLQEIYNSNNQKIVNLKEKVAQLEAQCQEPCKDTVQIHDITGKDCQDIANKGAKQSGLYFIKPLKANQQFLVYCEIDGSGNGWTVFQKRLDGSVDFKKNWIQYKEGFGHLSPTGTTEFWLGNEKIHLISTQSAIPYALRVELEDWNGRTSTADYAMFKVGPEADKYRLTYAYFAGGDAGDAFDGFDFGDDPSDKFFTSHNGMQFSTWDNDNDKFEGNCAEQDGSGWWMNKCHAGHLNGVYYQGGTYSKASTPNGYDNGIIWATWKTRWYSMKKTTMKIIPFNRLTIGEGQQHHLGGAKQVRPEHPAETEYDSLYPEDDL
fibrin polymerization, sequence (P02671 20-639 isoform P02671-2 partner limits assumed, one chain of several): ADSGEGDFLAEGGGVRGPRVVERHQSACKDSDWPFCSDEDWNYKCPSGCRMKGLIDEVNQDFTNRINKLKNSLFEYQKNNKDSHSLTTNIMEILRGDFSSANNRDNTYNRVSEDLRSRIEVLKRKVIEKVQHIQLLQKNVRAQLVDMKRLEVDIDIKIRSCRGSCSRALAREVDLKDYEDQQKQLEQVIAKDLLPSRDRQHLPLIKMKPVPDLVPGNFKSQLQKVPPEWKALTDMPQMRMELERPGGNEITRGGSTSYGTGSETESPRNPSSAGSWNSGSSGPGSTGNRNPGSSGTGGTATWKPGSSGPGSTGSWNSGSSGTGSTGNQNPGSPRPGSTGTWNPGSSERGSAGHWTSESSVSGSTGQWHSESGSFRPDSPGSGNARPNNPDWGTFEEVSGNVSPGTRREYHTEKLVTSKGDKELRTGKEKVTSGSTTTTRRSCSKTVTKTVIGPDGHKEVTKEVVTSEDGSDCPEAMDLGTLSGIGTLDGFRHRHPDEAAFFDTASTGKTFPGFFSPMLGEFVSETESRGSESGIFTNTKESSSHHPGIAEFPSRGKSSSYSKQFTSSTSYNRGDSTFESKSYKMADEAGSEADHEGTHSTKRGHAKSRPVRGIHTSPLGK

[9] = tested on: Synovial cells; assay: SAC competition assay by flow cytometry; format: binding, human; conditions: for Mean (fluorescence of bound SAC[KBtn]): Avidin-FITC
From the text: Thus, labeled peptide could facilitate the isolation, identification and characterization of its receptor, through standard immunological techniques such as immunohistochemistry, flow cytometry and immunoprecipitation.

[10] = tested on: RA derived synovial cells; assay: In vitro T cell adhesion assay; format: cell-based, human; conditions: IL-1 beta 1 ng/ml overnight, ± SD, triplicate wells
[11] = tested on: OA derived synovial cells; assay: In vitro T cell adhesion assay; format: cell-based, human; conditions: OA line 15; IL-1 beta 1 ng/ml overnight; ± SD, triplicate wells
[12] = tested on: foreskin fibroblast cells; assay: In vitro T cell adhesion assay; format: cell-based, human; conditions: Foreskin line; IL-1 beta 1 ng/ml overnight; ± SD, triplicate wells
[13] = tested on: monocytes; conditions: monocytes stimulated with PHA; for comparison; cited from earlier work
[14] = tested on: RA synovial fibroblasts; assay: GRO-alpha ELISA on cell culture supernatants; format: cell-based, human; conditions: RA line 7
Description: I used commercial ELISA kits to assay cell culture supernatants of RA fibroblasts that were cultured for both 24 and 48 hours with or without peptide.

[15] = unlabeled competitor 2.5 mg for 3 hours, then labeled SAC[KBtn] for 1 hour

## S=C(S)N1CCCC1 [PDTC, pyrrolidinedithio-carbamate]
[1]; OA line 2
  ICAM-1 O.D. 492: 0.65 ± .03
[1]; OA line 8
  ICAM-1 O.D. 492: 0.55 ± .04
[2]; RA line 5
  ICAM-1 O.D. 492: 0.75 ± .06
[2]; RA line 6
  ICAM-1 O.D. 492: 0.61 ± .02
[2]; inclusion of PDTC
  Effect on increase in ICAM-1 expression induced by Interleukin-1 and by GPRP: stopped the entire increase in ICAM-1 expression

## C[C@]12Cc3c[nH]nc3C[C@@H]1CC[C@@H]1[C@@H]2CC[C@@]2(C)[C@H]1CC[C@]2(C)O [stanozolol]
[3]
  Clinical outcome in RA patients: clinical benefit

## Ac-[Pen]RGDC (cysteine pairing not given here) [Fib. Recept. Pept., reference compound]
[4]; RA line 1
  ICAM-1 O.D. 492: 0.56 ± .02
[4]; RA line 2
  ICAM-1 O.D. 492: 0.42 ± .01
[5]
  ICAM-1 O.D. 492: 0.73 ± .08
[6]
  ICAM-1 O.D. 492: 0.38 ± .02

## FPA: amino acids 1 through 16 of the fibrinogen A/alpha chains cleaved off by thrombin (ADSGEGDFLAEGGGVR; Fibrinopeptide A; UniProt P02671 20-35, looked up) [reference compound]
[4]; RA line 1
  ICAM-1 O.D. 492: 0.61 ± .05
[4]; RA line 2
  ICAM-1 O.D. 492: 0.43 ± .03
[4]
  Effect on ICAM-1 induction: no effect
[5]
  ICAM-1 O.D. 492: 0.69 ± .02
[6]
  ICAM-1 O.D. 492: 0.31 ± .005

## FPB: Fibrinopeptide B, coagulation-related peptide (QGVNDNEEGFFSAR; ends and bridges not checked; UniProt P02675 31-44, looked up) [reference compound]
[4]; RA line 1
  ICAM-1 O.D. 492: 0.67 ± .04
[4]; RA line 2
  ICAM-1 O.D. 492: 0.47 ± .02
[4]
  Effect on ICAM-1 induction: no effect
[5]
  ICAM-1 O.D. 492: 0.80 ± .02
[6]
  ICAM-1 O.D. 492: 0.41 ± .04

## GHRPLDKKREE[KBtn] (GHRPLDKKREEK) [KREE [KBtn], biotinylated control peptide derived from the B/beta chain of fibrinogen, reference compound]
[7]; 100 ug biotinylated peptide
  % Cells Positive: 10.6%
  Mean Fluorescent Channel: 20.37

## GPRP-amide: GPRP with the carboxyl group at the end of Pro4 changed to an amide group (OH to NH2) (GPRP-NH2)
[4]; RA line 1
  ICAM-1 O.D. 492: 0.65 ± .02
[4]; RA line 2
  ICAM-1 O.D. 492: 0.49 ± .02
[4]; amide analog substituted for GPRP
  Induction of ICAM-1 in synovial fibroblasts: totally ineffective
[5]
  ICAM-1 O.D. 492: 0.80 ± .01
[6]
  ICAM-1 O.D. 492: 0.44 ± .01
[8]; Reference 20
  Effectiveness at inhibiting polymerization relative to H-Gly-Pro-Arg-Pro-OH: approximately three and one-half

## GPRVVERHQSAC (Unknown. Obtained from a commercial source.)
[9]; unlabeled competitor
  Competition with biotin-labeled SAC for binding to human synovial fibroblasts: can compete
[9]; [15]
  Mean (fluorescence of bound SAC[KBtn]): 36.30

## GPRVVERHQSAC[KBtn] (GPRVVERHQSACK) [SAC [KBtn]]
[7]; 100 ug biotinylated peptide
  % Cells Positive: 86.3%
  Mean Fluorescent Channel: 257.9
[7]; 200 ug biotinylated peptide
  % Cells Positive: 80.0%
  Mean Fluorescent Channel: 125.1
[9]; labeled SAC[KBtn] without competitor
  Mean (fluorescence of bound SAC[KBtn]): 51.20

## Gly-Pro-Arg [reference compound]
[8]; literature (Reference 25)
  Inhibition of fibrin polymerization: functions well as a polymerization inhibitor

## IL-1: cytokine, an inducer of ICAM-1, positive control [reference compound]
[4]; RA line 1
  ICAM-1 O.D. 492: 1.74 ± .08
[4]; RA line 2
  ICAM-1 O.D. 492: 1.18 ± .03
[5]
  ICAM-1 O.D. 492: 1.77 ± .13
[6]
  ICAM-1 O.D. 492: 1.36 ± .03
[10]; RA line 7
  Adherent T cell numbers: 116 ± 14
[10]; RA line 8
  Adherent T cell numbers: 58 ± 21
[11]
  Adherent T cell numbers: 66 ± 19
[12]
  Adherent T cell numbers: 94 ± 16
[1]; OA line 2
  ICAM-1 O.D. 492: 1.60 ± .03
[1]; OA line 8
  ICAM-1 O.D. 492: 1.51 ± .05
[2]; RA line 5
  ICAM-1 O.D. 492: 1.88 ± .05
[2]; RA line 6
  ICAM-1 O.D. 492: 1.80 ± .04

## phytohemagglutinin
[13]
  Increase of IL-8 production: approximately three

B1: interferon γ: positive control for foreskin fibroblasts (protein, UniProt P01579 24-161, looked up)
Interferon gamma: QDPYVKEAENLKKYFNAGHSDVADNGTLFLGILKNWKEESDRKIMQSQIVSFYFKLFKNFKDDQSIQKSVETIKEDMNVKFFNSNKKKRDDFEKLTNYSVTDLNVQRKAIHELIQVMAELSPAAKTGKRKRSQMLFRG
[5]; Foreskin fibroblasts, fibrin clots 0.6 mg/ml, GPRP 1 mg/ml or interferon γ 200 U/ml, mean ± SD
  ICAM-1 expression O.D. 492: 1.57 ± .13

B2: Fibrinogen: plasma protein precursor of fibrin; unlabeled competitor in Table 10 (protein)
chain 1: ADSGEGDFLAEGGGVRGPRVVERHQSACKDSDWPFCSDEDWNYKCPSGCRMKGLIDEVNQDFTNRINKLKNSLFEYQKNNKDSHSLTTNIMEILRGDFSSANNRDNTYNRVSEDLRSRIEVLKRKVIEKVQHIQLLQKNVRAQLVDMKRLEVDIDIKIRSCRGSCSRALAREVDLKDYEDQQKQLEQVIAKDLLPSRDRQHLPLIKMKPVPDLVPGNFKSQLQKVPPEWKALTDMPQMRMELERPGGNEITRGGSTSYGTGSETESPRNPSSAGSWNSGSSGPGSTGNRNPGSSGTGGTATWKPGSSGPGSTGSWNSGSSGTGSTGNQNPGSPRPGSTGTWNPGSSERGSAGHWTSESSVSGSTGQWHSESGSFRPDSPGSGNARPNNPDWGTFEEVSGNVSPGTRREYHTEKLVTSKGDKELRTGKEKVTSGSTTTTRRSCSKTVTKTVIGPDGHKEVTKEVVTSEDGSDCPEAMDLGTLSGIGTLDGFRHRHPDEAAFFDTASTGKTFPGFFSPMLGEFVSETESRGSESGIFTNTKESSSHHPGIAEFPSRGKSSSYSKQFTSSTSYNRGDSTFESKSYKMADEAGSEADHEGTHSTKRGHAKSRPV
chain 2: QGVNDNEEGFFSARGHRPLDKKREEAPSLRPAPPPISGGGYRARPAKAAATQKKVERKAPDAGGCLHADPDLGVLCPTGCQLQEALLQQERPIRNSVDELNNNVEAVSQTSSSSFQYMYLLKDLWQKRQKQVKDNENVVNEYSSELEKHQLYIDETVNSNIPTNLRVLRSILENLRSKIQKLESDVSAQMEYCRTPCTVSCNIPVVSGKECEEIIRKGGETSEMYLIQPDSSVKPYRVYCDMNTENGGWTVIQNRQDGSVDFGRKWDPYKQGFGNVATNTDGKNYCGLPGEYWLGNDKISQLTRMGPTELLIEMEDWKGDKVKAHYGGFTVQNEANKYQISVNKYRGTAGNALMDGASQLMGENRTMTIHNGMFFSTYDRDNDGWLTSDPRKQCSKEDGGGWWYNRCHAANPNGRYYWGGQYTWDMAKHGTDDGVVWMNWKGSWYSMRKMSMKIRPFFPQQ
chain 3: YVATRDNCCILDERFGSYCPTTCGIADFLSTYQTKVDKDLQSLEDILHQVENKTSEVKQLIKAIQLTYNPDESSKPNMIDAATLKSRKMLEEIMKYEASILTHDSSIRYLQEIYNSNNQKIVNLKEKVAQLEAQCQEPCKDTVQIHDITGKDCQDIANKGAKQSGLYFIKPLKANQQFLVYCEIDGSGNGWTVFQKRLDGSVDFKKNWIQYKEGFGHLSPTGTTEFWLGNEKIHLISTQSAIPYALRVELEDWNGRTSTADYAMFKVGPEADKYRLTYAYFAGGDAGDAFDGFDFGDDPSDKFFTSHNGMQFSTWDNDNDKFEGNCAEQDGSGWWMNKCHAGHLNGVYYQGGTYSKASTPNGYDNGIIWATWKTRWYSMKKTTMKIIPFNRLTIGEGQQHHLGGAKQAGDV
[14]
  GRO-alpha: 8000 pg/mL
[14]; versus control
  GRO-alpha Fold Increase: 145X
[9]; [15]
  Mean (fluorescence of bound SAC[KBtn]): 21.63
